Data reported in patent publication US7741124B2, “Detection procedures for fibrinogen and/or fibrinogen derivatives” (priority 2003, dated 2010).

Key:
[1] = target: T1, plasmatic fibrinogen (Homo sapiens, UniProt P02671+P02675+P02679); type: biochemical
T1 construct: pooled patient plasma (P-Pool, n=32 single plasmas); from tissue; host or cells: pooled citrated patient plasma (P-Pool, Fbgen-Pool-Plasma)
T1 sequence (P02671 20-644 isoform P02671-2 limits assumed): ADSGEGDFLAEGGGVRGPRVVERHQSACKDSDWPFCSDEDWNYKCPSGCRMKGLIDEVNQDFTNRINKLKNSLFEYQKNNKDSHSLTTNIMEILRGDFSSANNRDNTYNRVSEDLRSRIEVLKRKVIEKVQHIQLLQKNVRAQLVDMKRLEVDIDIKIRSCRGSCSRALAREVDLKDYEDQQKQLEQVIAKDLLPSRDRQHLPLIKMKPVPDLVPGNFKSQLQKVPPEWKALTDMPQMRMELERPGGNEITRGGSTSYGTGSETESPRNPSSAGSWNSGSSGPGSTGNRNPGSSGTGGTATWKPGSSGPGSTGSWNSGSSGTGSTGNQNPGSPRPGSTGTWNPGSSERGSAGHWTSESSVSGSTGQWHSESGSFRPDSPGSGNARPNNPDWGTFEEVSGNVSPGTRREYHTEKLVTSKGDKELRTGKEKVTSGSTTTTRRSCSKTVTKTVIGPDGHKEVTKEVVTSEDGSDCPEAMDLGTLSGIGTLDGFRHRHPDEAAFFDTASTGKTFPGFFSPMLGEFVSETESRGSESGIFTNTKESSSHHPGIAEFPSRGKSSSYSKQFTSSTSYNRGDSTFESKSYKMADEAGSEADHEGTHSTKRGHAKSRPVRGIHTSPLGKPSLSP
T1 sequence (P02675 31-491): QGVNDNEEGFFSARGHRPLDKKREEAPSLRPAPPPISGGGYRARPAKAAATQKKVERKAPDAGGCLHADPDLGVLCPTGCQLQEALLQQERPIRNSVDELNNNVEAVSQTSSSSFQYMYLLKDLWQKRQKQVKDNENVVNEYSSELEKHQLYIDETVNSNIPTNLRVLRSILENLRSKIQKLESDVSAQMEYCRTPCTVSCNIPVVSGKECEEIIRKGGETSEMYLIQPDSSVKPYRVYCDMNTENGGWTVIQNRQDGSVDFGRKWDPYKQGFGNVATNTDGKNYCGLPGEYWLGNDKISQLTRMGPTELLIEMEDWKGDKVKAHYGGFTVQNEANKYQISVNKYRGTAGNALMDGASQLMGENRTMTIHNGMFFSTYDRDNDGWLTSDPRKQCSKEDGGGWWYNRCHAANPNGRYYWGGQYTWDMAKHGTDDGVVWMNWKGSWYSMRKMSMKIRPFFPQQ
T1 sequence (P02679 27-437 isoform P02679-2 limits assumed): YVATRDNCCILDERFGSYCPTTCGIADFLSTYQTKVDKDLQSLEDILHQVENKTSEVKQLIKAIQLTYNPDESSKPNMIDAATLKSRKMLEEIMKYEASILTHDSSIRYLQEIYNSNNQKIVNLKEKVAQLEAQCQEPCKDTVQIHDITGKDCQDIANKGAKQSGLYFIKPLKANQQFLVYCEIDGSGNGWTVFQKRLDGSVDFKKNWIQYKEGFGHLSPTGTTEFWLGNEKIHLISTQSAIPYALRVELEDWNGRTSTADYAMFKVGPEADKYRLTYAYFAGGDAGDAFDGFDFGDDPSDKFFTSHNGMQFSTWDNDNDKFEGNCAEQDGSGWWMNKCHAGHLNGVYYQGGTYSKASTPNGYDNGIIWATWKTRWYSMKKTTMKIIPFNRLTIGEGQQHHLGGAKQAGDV
Protocol: 25 μl of 143% (4.0 g/l) P-Pool were incubated with 25 μl 0-50 mM vancomycin in PBS, 50 μl PBS, 0.1% Triton X 100® and 50 μl 850 mM KCl in H2O for 1 min (RT). The turbidity at 405 nm was determined. […] For pH-studies 5 ml P-Pool were mixed with 5 ml PBS and 0-1750 μl 1 M NaHCO3, pH 8.6.
5 ml P-Pool were incubated with 5 ml 4.4 mM vancomycin in PBS for 3 min (RT). Then the reaction mixture was centrifuged at 2500 g (4000 rpm) for 10 min. The supernatant was separated from the precipitate. The precipitate was not washed or was washed 3× with dest. H2O (resuspension, centrifugation, resuspension, . . . ). The unwashed precipitate was solubilized by addition of 500 μl 1 M NaHCO3, pH 8.6, and 4500 μl PBS; the washed precipitate was solubilized by addition of 300 μl 1 M NaHCO3 to 1700 μl in dest. H2O resuspended precipitate. 3 preparations of washed precipitate were also dried at room temperature and the dried precipitates were weighed. The solubilized precipitate and the supernatant were functionally analyzed for fibrinogen. 100 μl 1 M NaHCO3, pH 8.6 were added to 400 μl of the solubilized unwashed precipitate and this solution, the solubilized washed precipitate and the supernatant were analyzed for total protein, albumin concentration, and pseudocholinesterase activity in a Hitachi 917 analyzer, Roche, Basel, Switzerland and for vancomycin in an Integra 800 (Fluorescence Polarisation Immuno Assay); electrophoreses were performed in an agarose gel-based Hydrasis LC-Electrophoresis system (Sebia, Fulda, Germany). For control, 1 ml pooled serum was incubated with 1 ml 4.4 mM vancomycin in PBS, and the vancomycin conc. was determined.

[2] = target: T2, fibrinogen (Homo sapiens, UniProt P02671+P02675+P02679); assay: FIATA optimization: turbidity in dependence of vancomycin concentration; type: biochemical
T2 construct: pooled patient plasma (P-Pool, n=32 single plasmas); from tissue; host or cells: pooled citrated patient plasma (P-Pool, Fbgen-Pool-Plasma)
T2 sequence (P02671 20-644 isoform P02671-2 limits assumed): T1 sequence (P02671 20-644 isoform P02671-2 limits assumed)
T2 sequence (P02675 31-491): T1 sequence (P02675 31-491)
T2 sequence (P02679 27-437 isoform P02679-2 limits assumed): T1 sequence (P02679 27-437 isoform P02679-2 limits assumed)
Protocol: 50 μl P-Pool or 1:2 or 1:4 diluted (in 6% BSA-PBS) P-Pool were incubated with 50 μl 0-6.8 mM vancomycin in PBS. The turbidity increase at 405 nm was determined after 1 min (RT). 25 μl Fbgen-Pool (300% of norm; 8.4 g/l) were incubated with 125 μl 0.55 mM, 1.1 mM, or 2.2 mM vancomycin in PBS for 1 min (RT). Then the turbidity increase at 405 nm was determined.

[3] = after 1+1 incubation with 4.4 mM vancomycin in PBS

**Q.** Which fibrinogen precipitated ([1]; 4.4 mM vancomycin) does the source give for `CN[C@H](CC(C)C)C(=O)N[C@H]1C(=O)N[C@@H](CC(N)=O)C(=O)N[C@H]2C(=O)N[C@H]3C(=O)N[C@H](C(=O)N[C@H](C(=O)O)c4cc(O)cc(O)c4-c4cc3ccc4O)[C@H](O)c3ccc(c(Cl)c3)Oc3cc2cc(c3O[C@@H]2O[C@H](CO)[C@@H](O)[C@H](O)[C@H]2O[C@H]2C[C@](C)(N)[C@H](O)[C@H](C)O2)Oc2ccc(cc2Cl)[C@H]1O` [vancomycin] here?
**A.** 84%

**Q.** What about the “fibrinogen remained in the plasma” value ([1]; 4.4 mM vancomycin) of the same molecule?
**A.** 16%

**Q.** What about the “fibrinogen remained of initial 4.0 g/l” value ([1]; 4.4 mM vancomycin, corrected for 1+1 dilution) of the same molecule?
**A.** 0.64 g/L

**Q.** What about the “fibrinogen conc. in the supernatant” value ([1]; 1 part plasma and 1 part 4.4 mM vancomycin in PBS) of the same molecule?
**A.** 0.32 g/L

**Q.** And the “increase of turbidity of citrated plasma” value ([1]; 25 μl 0-50 mM vancomycin, 25 μl P-Pool, 1 min RT)?
**A.** up to 20 fold

**Q.** And the “vancomycin found in pooled serum” value [1, 3]?
**A.** 2.1 mM

**Q.** And the “vancomycin found in supernatant of pooled plasma” value [1, 3]?
**A.** 0.17 mM

**Q.** And the “vancomycin attached to 5 μM precipitating fibrinogen” value ([1]; of 2.2 mM vancomycin in the reaction mixture)?
**A.** 80 µM

**Q.** And the vancomycin molecules/fibrinogen molecule ([1]; washed precipitate)?
**A.** 16

**Q.** What about the “fibrinogen concentration at saturation of turbidity increase” value ([2]; 68.8 μmoles of vancomycin given to 25 μl 300% Fbgen-Pool) of the same molecule?
**A.** about 4 g/l

**Q.** What about the “own turbidity at 405 nm” value ([2]; 4.4 mM vancomycin in PBS, 0% fibrinogen standard in BSA) of the same molecule?
**A.** < 50 mA

**Q.** What about the “fibrinogen concentration at saturation of turbidity increase” value ([2]; 137.5-275 μmoles of vancomycin) of the same molecule?
**A.** 6 to 8 g/L

**Q.** And the “stability of the turbidity increase” value ([2]; vancomycin in plasma, RT)?
**A.** at least 10 min
